Assay results taken from patent US20100267803A1, “Regulators Of Fat Metabolism As Anti-Cancer Targets” (The Research Foundation of State University Of New York, priority 2008, published 2010).

How the values were obtained:
BT474 cells = assay: RNAi screen, alamarBlue cell proliferation and viability; type: cell-based, human; details: shRNA transfection
Description: (§1) FIG. 1 An RNAi screen targeting genes overexpressed in breast cancer. (a) Three transfection mixes were produced for each shRNA and each was transfected into triplicate wells of BT474 cells. AlamarBlue was used to monitor cell proliferation and viability. […] (b) The genetic and functional linkage of NR1D1 and PBP. Mb refers to map position on chromosome 17. (c) ERBB2-overexpressing (OEX) and ERBB2 non-overexpressing (non-OEX) breast cancer cell lines as well as the (non-OEX) HMEC and HEK 293 cells were transfected and assayed as in (a). […] Genes clustered with ERBB2 are boxed.
Amplification of the ERBB2 oncogene occurs in 10-34% of breast cancer cases and is correlated with aggressive disease and poor clinical outcome^1. […] However, its success has been tempered by response rates of only 30% when used as a single agent therapy in patients with metastatic ERBB2-positive breast cancer^2. A large number of genes co-overexpressed with ERBB2 in this tumour type have been proposed to contribute to the aggressiveness of this cancer^3-5. Applicants have performed an unbiased functional RNAi screen^8-10 to determine if any of these co-overexpressed genes are essential for ERBB2 positive breast cancer cell survival.
RNAi screen, transfections and constructs. The flag-RevErba (flag-NR1D1) overexpression construct was a generous gift of M. Lazar. The LSXN-neu* (ERBB2) overexpression construct was a generous gift of L. Petti. shRNA constructs were expressed from the pSHAG-MAGIC 2 (pSM2) vector and derived from a genome-wide shRNA library^31. ShRNAs targeting the firefly (Photinus pyralis) luciferase gene were used as controls. Transfection efficiency was monitored by co-transfection with a modified MSCV-Puro vector expressing green fluorescent protein (GFP). The alamarBlue (Biosource) assay was performed 96 h post-transfection, since BT474 cells have a population doubling time of ˜100 hours. For mature sequences of the shRNAs that produced the best results on decreasing BT474 viability, Table S1; a complete list is available in the RNAi Codex web page (http://codex.cshl.edu). The shRNAs targeting the luciferase gene were constructed as described in the RNAi Codex web page (http://codex.cshl.edu/scripts/newmain.pl) using a modified pSM2 vector containing the PheS gene (pSM2-PheS) in the cloning site, as a negative selection marker. The empty vector control (pSM2e) was constructed by XhoI and EcoRI (New England Biolabs) digestion of pSM2-PheS, followed by nucleotide filling of protruding ends by Klenow polymerase and blunt-end ligation. Transfections were performed using FuGENE 6 and HD FuGENE (Roche) according to the manufacturer's protocol. High-throughput transfections were performed using an EpMotion 5070 fluidics station (Eppendorf). For quantification of alamarBlue we used a BioTek HT Synergy plate reader. AlamarBlue values from the RNAi screens on other cell types were also calculated as above and subjected to hierarchical cluster analysis using Cluster 2.11 (M. Eisen Lab).

[1] = tested on: ERBB2 overexpressing (BT474, MDA-MB-361) breast cancer cell lines; assay: alamarBlue proliferation of shRNA-transfected ERBB2-overexpressing cell lines; type: cell-based, human; details: shRNA transfection
Description: as §1
To assess the specificity of effect of each shRNA on cell proliferation, those causing the greatest decrease in BT474 cell proliferation were transfected in a variety of cell lines, including ERBB2 overexpressing (BT474, MDA-MB-361) and nonoverexpressing breast cancer cell lines (MCF-7, MDA-MB-453, MDA-MB-468), normal human mammary epithelial cells (HMECs) and a non-breast tumorigenic cell line (HEK 293FT). […] PBP, NRID1 and PFN2 shRNAs clustered with ERBB2.
RNAi screen, transfections and constructs. The flag-RevErba (flag-NR1D1) overexpression construct was a generous gift of M. Lazar. The LSXN-neu* (ERBB2) overexpression construct was a generous gift of L. Petti. shRNA constructs were expressed from the pSHAG-MAGIC 2 (pSM2) vector and derived from a genome-wide shRNA library^31. ShRNAs targeting the firefly (Photinus pyralis) luciferase gene were used as controls. Transfection efficiency was monitored by co-transfection with a modified MSCV-Puro vector expressing green fluorescent protein (GFP). The alamarBlue (Biosource) assay was performed 96 h post-transfection, since BT474 cells have a population doubling time of ˜100 hours. […] For quantification of alamarBlue we used a BioTek HT Synergy plate reader. AlamarBlue values from the RNAi screens on other cell types were also calculated as above and subjected to hierarchical cluster analysis using Cluster 2.11 (M. Eisen Lab).

PBP mRNA = assay: qRT-PCR of PBP mRNA in BT474 cells; type: cell-based, human; details: shRNA 48 h
Protocol: FIG. 2 NR1D1 and PBP are necessary for survival of ERBB2-positive cells. (a) PBP and NR1D1 mRNA levels of BT474 cells transfected with luciferase (control), PBP or NR1D1 shRNAs for 48 h, analyzed by qRT-PCRs. (Error bars are s.d from 3 experiments; ***P<0.003, **P=0.01, *P=0.02). (b) BMAL1 luciferase reporter activity of BT474 cells transfected with either empty vector (control), or NR1D1 shRNA for 48 h.
(§2) Cell viability—apoptosis assays. […] At least 30 fields were imaged per single experiment. […] Immunoblotting. […] PCR reaction was run using standard conditions.

PBP = details: after shRNA transfection
Protocol: Immunoblotting. Cell extracts for western blots were obtained using RIPA buffer (1% Triton X-100, 40mM NaCl, 0.1% SDS, 10 mM Tris pH 8.0) supplemented with complete cocktail of proteinase inhibitors (Roche). For detection of phoshporylated epitopes, the PhosSTOP cocktail of phospatase inhibitors (Roche) was added in the lysis buffer. Protein extracts were separated by SDS-PAGE, transferred to Immobilon-P (Millipore) membranes and immunoblotted according to standard protocols. Blots were imaged using a FluorChem HD (Alpha Innotech) imaging system and images were analyzed by densitometry using the FluorChem 9900 software (Alpha Innotech). Antibodies used: anti-flag (M2; Stratagene), PBP (TRAP220, C-19; Santa Cruz), GAPDH (V-18; Santa Cruz Biotechnology), ERBB2 (clone 42; BD), phospho-ERBB2 (Tyr877, #2241; Cell Signaling Technology), phospho-ERBB2 (Tyr1221/1222, 6B12; Cell Signaling Technology), anti-rabbit IgG-HRP (sc-2204, Santa Cruz Biotechnology), anti-goat IgG-HRP (sc-2768, Santa Cruz Biotechnology), anti-mouse IgG-HRP (#31430; Pierce Biotechnology) qRT-PCR.

NR1D1 = assay: Immunoblot of NR1D1 protein after shRNA; type: cell-based, human; details: after shRNA transfection
Description: as §2

MDH1 mRNA = assay: qRT-PCR of MDH1 mRNA in BT474 cells; type: cell-based, human; details: shRNA 48 h
Protocol: (§3) FIG. 5. (a) MDH1 and ME1 mRNA levels of BT474 cells treated with luciferase (control), PBP or NR1D1 shRNAs for 48 h, analyzed by qRT-PCRs. (Error bars are s.d from 3 experiments; **P<0.002 (b) BT474 and MCF-7 cells were transfected with luciferase (control) MDH1 and ME1 shRNAs (Error bars are s.d from 3 individual experiments; ***P=0.0003). (c) BT474 cells) assayed for cleaved Caspase-3 signal by immunofluorescence 48 h after transfection; cell nuclei were stained with Hoechst 33243. (d) Quantification of cleaved Caspase-3 signal from cells in (c). (Error bars are s.d from 3 individual experiments; ***P<0.005). (e) Enzymes involved in fatty acid synthesis and storage that are regulated by NR1D1 and PBP and their proposed contribution to energy production necessary for survival of ERBB2-positive breast cancer cells.
as §2

ME1 mRNA = assay: qRT-PCR of ME1 mRNA in BT474 cells; type: cell-based, human; details: shRNA 48 h
Protocol: as §3, §2

PBP shRNA: shRNA, mature sequence CCGAGTTCCTCTTATCCTA (shRNA)
effect on cell proliferation (BT474 cells): most dramatic effect on cell proliferation | viability of ERBB2-positive cells [1]: specifically decreased the viability of ERBB2-positive cells | decrease in mRNA levels of target (PBP) (PBP mRNA): > 60% | PBP protein levels (PBP): decreased protein levels

NR1D1 shRNA: shRNA, mature sequence GGCATGGTGTTACTGTGTA (shRNA)
effect on cell proliferation (BT474 cells): most dramatic effect on cell proliferation | NR1D1 protein levels (NR1D1): decreased protein levels | MDH1 message levels (MDH1 mRNA): significantly decreased | viability of ERBB2-positive cells [1]: specifically decreased the viability of ERBB2-positive cells | ME1 message levels (ME1 mRNA): significantly decreased
